This is an account of results in US8334409B2, “Process for purifying rasagiline base” (Teva Pharmaceutical Industries, Ltd., priority 2008, dated 2012).

For data set [1] the following is noted: alcohols, acetone, ethyl acetate, toluene, diethyl ether, dioxane, hexane and n-heptane.
For data set [2] the following is noted: low levels of volatiles (water and residual solvents) by KF and TGA.

Turning to `C#CCN[C@@H]1CCc2ccccc21` [rasagiline base, R(+)-N-propargyl-1-aminoindan], in data set [1], the “solubility in polar and non-polar organic solvents” value is given as “freely soluble”. For the same molecule, the hygroscopicity entry in data set [2] is “not hygroscopic”.
